Tests used:
[1] = system: ERK2; test: ERK phosphorylation, Western immunoblotting; details: 10 nM, 30 min
[2] = system: MCF-7 cells; test: MCF-7 cell proliferation, MTT; type: cell-based, human; details: 3 days, serially diluted concentrations, MTT at 570 nm
[3] = system: rat primary hippocampal neurons; test: Neuroprotection against glutamate-induced neurotoxicity, calcein AM staining; type: cell-based
Source text: The combined use of Calcein AM and Ethidium Homodimer-1 (Molecular Probes, Inc., Eugene, Oreg.) provides a two-color fluorescence analysis that allows simultaneous determination of live and dead cells with two probes that measure two recognized parameters of cell viability respectively, intracellular esterase activity and plasma membrane integrity. Calcein AM is a fluorogenic esterase substrate that enters the live cells through permeability and is enzymatically hydrolyzed to form the polyanionic dye calcein, which is well retained within live cells due to the intact plasma membranes and produces an intense uniform green fluorescence at 530 nm. Ethidium homodimer is excluded from live cells and only able to enter cells through compromised plasma membranes and binds to nucleic acid by intercalating between the base pairs, producing a bright red fluorescence at 645 nm. Therefore, Calcein AM and ethidium homodimer serve as two indicators for the identification of live and dead cells respectively.
Cultures were rinsed with phosphate-buffered saline (PBS) and incubated with the combined 1 μM calcein AM and 2 μM ethidium homodimer PBS solution at room temperature for 30 min. The fluorescence intensities were measured on a SpectraMax GEMINI EM dual-wavelength-scanning microplate spectrofluometer (Molecular Devices Corp., Sunnyvale, Calif.) using appropriate excitation and emission filter combinations (485/530 nm for calcein AM and 530/645 nm for ethidium homodimer).

[4] = system: rat primary hippocampal neurons; test: Neuroprotection against glutamate-induced neurotoxicity, LDH release; type: cell-based
[5] = target: full-length human ERβ (Homo sapiens, UniProt Q92731); test: Fluorescence polarization-based competitive binding assay, ERβ
[6] = system: spinophilin; test: Spinophilin expression in hippocampal neurons; details: 100 nM, 48 h
[7] = system: Bcl-2; test: Bcl-2 expression, Western immunoblotting; details: 100 nM, 48 h
[8] = target: T1, full-length human ERα (Homo sapiens, UniProt P03372); test: Fluorescence polarization-based competitive binding assay, ERα
T1 sequence (P03372 1-595): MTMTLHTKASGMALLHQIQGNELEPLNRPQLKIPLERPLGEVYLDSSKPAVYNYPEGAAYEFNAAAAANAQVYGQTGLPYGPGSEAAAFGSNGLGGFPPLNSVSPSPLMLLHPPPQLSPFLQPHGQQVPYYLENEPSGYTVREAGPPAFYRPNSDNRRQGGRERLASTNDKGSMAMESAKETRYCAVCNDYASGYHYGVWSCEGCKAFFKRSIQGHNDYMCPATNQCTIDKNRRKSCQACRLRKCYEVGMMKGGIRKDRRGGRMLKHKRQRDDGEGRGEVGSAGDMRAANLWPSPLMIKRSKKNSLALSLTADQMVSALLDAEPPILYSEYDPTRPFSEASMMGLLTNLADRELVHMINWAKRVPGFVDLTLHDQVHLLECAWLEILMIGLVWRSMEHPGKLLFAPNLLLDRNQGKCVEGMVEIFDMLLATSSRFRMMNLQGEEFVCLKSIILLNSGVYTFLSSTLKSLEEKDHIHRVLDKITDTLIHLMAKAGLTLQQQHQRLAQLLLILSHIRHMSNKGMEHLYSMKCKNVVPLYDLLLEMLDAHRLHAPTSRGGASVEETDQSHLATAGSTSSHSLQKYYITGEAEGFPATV

[9] = system: rat primary hippocampal neurons; test: Neuroprotective efficacy (NE) against glutamate-induced neurotoxicity over time; type: cell-based; details: for Neuroprotective efficacy 2 hours after glutamate exposure / Neuroprotective efficacy 5 hours after glutamate exposure / Neuroprotective efficacy 7.5 hours after glutamate exposure / Neuroprotective efficacy 10 minutes after glutamate exposure: glutamate 200 μM; for time course of neuroprotection: early vs later time points after glutamate
Procedure: FIGS. 13A-E are graphs showing the neuroprotective efficacy of NS2 (FIG. 13A); NS1-1 (FIG. 13B); NS1-2 (FIG. 13C); NS1-3 (FIG. 13D); and NS1-4 (FIG. 13E) against glutamate-induced neurotoxicity in rat primary hippocampal neurons as a function of time and concentration (nM).
The assay for evaluating neuroprotective efficacy after glutamate exposure is discussed above. The following compounds were evaluated: NS2; NS1-1; NS1-2; NS1-3; and NS1-4. The results are shown in the Tables 4-8 and are presented graphically in FIGS. 13A-E.
Results are presented as neuroprotective efficacy (NE), which is defined as the percentage of neurotoxin-induced toxicity prevented by the test compounds (or combinations) and quantified by the equation:
NE=(Vtreatment−Vneurotoxin)/(Vcontrol−Vneurotoxin)*100%
where Vtreatment is the individual value from the test compounds (or combinations)-treated cultures, Vneurotoxin is a mean value from glutamate treated cultures, and Vcontrol is a mean value from vehicle-treated control cultures.

full-length human ERβ, sequence (Q92731 whole entry): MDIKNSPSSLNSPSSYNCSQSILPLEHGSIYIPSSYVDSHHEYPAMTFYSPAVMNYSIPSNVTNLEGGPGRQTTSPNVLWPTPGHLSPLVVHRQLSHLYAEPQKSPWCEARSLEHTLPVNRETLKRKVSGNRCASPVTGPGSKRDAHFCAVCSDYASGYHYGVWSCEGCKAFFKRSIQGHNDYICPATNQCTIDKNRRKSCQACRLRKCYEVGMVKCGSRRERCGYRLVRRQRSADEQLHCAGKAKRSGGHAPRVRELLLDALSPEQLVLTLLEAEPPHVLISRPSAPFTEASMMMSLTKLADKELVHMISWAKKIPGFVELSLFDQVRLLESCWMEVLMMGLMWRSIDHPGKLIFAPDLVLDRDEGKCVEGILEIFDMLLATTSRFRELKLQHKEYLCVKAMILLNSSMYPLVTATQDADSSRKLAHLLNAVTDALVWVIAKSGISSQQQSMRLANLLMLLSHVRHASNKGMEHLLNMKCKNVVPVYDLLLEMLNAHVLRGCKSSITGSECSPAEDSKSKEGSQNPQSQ

SMILES | Neuroprotective efficacy 2 hours after glutamate exposure ([9]; 1 nM) [%] | Neuroprotective efficacy 2 hours after glutamate exposure ([9]; 10 nM) [%] | Neuroprotective efficacy 2 hours after glutamate exposure ([9]; 100 nM) [%] | Neuroprotective efficacy 2 hours after glutamate exposure ([9]; 1000 nM) [%] | time course of neuroprotection [9] | Neuroprotective efficacy 7.5 hours after glutamate exposure ([9]; 1 nM) [%] | Neuroprotective efficacy 7.5 hours after glutamate exposure ([9]; 10 nM) [%] | Neuroprotective efficacy 7.5 hours after glutamate exposure ([9]; 100 nM) [%] | Neuroprotective efficacy 7.5 hours after glutamate exposure ([9]; 1000 nM) [%] | also measured
C[C@]12CC[C@@H]3c4ccc(O)cc4CC[C@H]3[C@@H]1CC[C@@H]2O [17β-estradiol] | – | – | – | – | – | – | – | – | – | increase in ERK2 phosphorylation compared to vehicle [1]: 38.0±7.7%
CC(C)CCC[C@@H](C)CCC[C@@H](C)CCC[C@@H]1Cc2cc(O)ccc2C2CC[C@@]3(C)C(CC[C@@H]3O)C21 (stereo partly drawn) [NS1, 7α-[(4R,8R)-4,8,12-trimethyltridecyl]estra-1,3,5-trien-3,17β-diol] | – | – | – | – | – | – | – | – | – | MCF-7 cell proliferation [2]: does not induce MCF-7 cell proliferation; increase in neuronal metabolic viability compared with glutamate alone (calcein AM) ([3]; 1 nM): 2.7±3.2%; increase in neuronal metabolic viability compared with glutamate alone (calcein AM) ([3]; 10 nM): 9.3±3.7%; increase in neuronal metabolic viability compared with glutamate alone (calcein AM) ([3]; 100 nM): 28.4±3.2%; increase in neuronal metabolic viability compared with glutamate alone (calcein AM) ([3]; 1000 nM): 25.6±4.4%; less potency than 17β-estradiol and ICI 182,780 in neuroprotection [4]: 10 fold; increase in neuronal membrane integrity compared with glutamate alone (LDH release) ([4]; 1 nM): 38.6±3.8%; increase in neuronal membrane integrity compared with glutamate alone (LDH release) ([4]; 10 nM): 44.1±3.8%; increase in neuronal membrane integrity compared with glutamate alone (LDH release) ([4]; 100 nM): 67.0±4.0%; increase in neuronal membrane integrity compared with glutamate alone (LDH release) ([4]; 1000 nM): 59.1±3.7%; IC50 ([5]; competition with EL Red): 267 nM; increase in spinophilin expression compared to vehicle [6]: 61.7±8.2%; increase in Bcl-2 expression compared to vehicle [7]: 23.4±6.8%; IC50 [8]: 193 nM
CCCCCCCCCCCCCCCC[C@@H]1Cc2cc(O)ccc2C2CC[C@@]3(C)C(CC[C@@H]3O)C21 (stereo partly drawn) [NS1-1] | 12.7957 | 41.8183 | 77.2530 | 70.8102 | neuroprotective at early time points with diminished protection at later time points | – | – | – | – | Neuroprotective efficacy 5 hours after glutamate exposure ([9]; 1 nM): 3.769%; Neuroprotective efficacy 5 hours after glutamate exposure ([9]; 10 nM): 20.8614%; Neuroprotective efficacy 5 hours after glutamate exposure ([9]; 100 nM): 23.8415%; Neuroprotective efficacy 5 hours after glutamate exposure ([9]; 1000 nM): 11.9900%
C[C@]12CCC3c4ccc(O)cc4C[C@@H](CCCCCCCCCCCCCCCCO)C3C1CC[C@@H]2O (stereo partly drawn) [NS1-2] | 17.5192 | 51.3940 | 32.3028 | 24.9982 | neuroprotective at early time points and increases in magnitude at later time points | 26.5265 | 76.6877 | 93.0520 | 47.1665 | –
C[C@]12CCC3c4ccc(O)cc4C[C@@H](CCCCCCCCCCCCCCCCOCc4ccccc4)C3C1CC[C@@H]2O (stereo partly drawn) [NS1-3] | 15.44 | 55.77 | 87.33 | 78.43 | neuroprotective at early time points with diminished protection at later time points | 8.102 | 28.06 | 51.87 | 53.3893 | –
CC(C)CCC[C@@H](C)CCC[C@@H](C)CCC[C@H](C)CC[C@@H]1Cc2cc(O)ccc2C2CC[C@@]3(C)C(CC[C@@H]3O)C21 (stereo partly drawn) [NS1-4] | 51.86 | 86.27 | 110.3902 | 94.3991 | neuroprotective at early time points with diminished protection at later time points | 8.415 | 28.8 | 69.76 | 38.0418 | –
CC(C)=CCC/C(C)=C/CC/C(C)=C/CC1=C(c2ccc(O)cc2)C(=O)c2ccc(O)cc2C1=O [NS2] | 3.937 | 30.96 | 68.16 | 73.84 | neuroprotective at early time points and increases in magnitude at later time points | – | – | – | – | Neuroprotective efficacy 10 minutes after glutamate exposure ([9]; 1 nM): −10.3103%; Neuroprotective efficacy 5 hours after glutamate exposure ([9]; 1 nM): 24.94%; Neuroprotective efficacy 10 minutes after glutamate exposure ([9]; 10 nM): −3.6302%; Neuroprotective efficacy 5 hours after glutamate exposure ([9]; 10 nM): 44%; Neuroprotective efficacy 10 minutes after glutamate exposure ([9]; 100 nM): 33.68%; Neuroprotective efficacy 5 hours after glutamate exposure ([9]; 100 nM): 71.35%; Neuroprotective efficacy 10 minutes after glutamate exposure ([9]; 1000 nM): 40.51%; Neuroprotective efficacy 5 hours after glutamate exposure ([9]; 1000 nM): 76.45%
CC(=O)[C@H]1CC[C@H]2[C@@H]3CCC4=CC(=O)CC[C@]4(C)[C@H]3CC[C@]12C [progesterone, reference compound] | – | – | – | – | – | – | – | – | – | binding to ERβ ([5]; negative control): does not bind; binding to ERα ([8]; negative control): does not bind
